# Laboratory results published in ChEMBL document CHEMBL5303708, “ECBD screening data for assay EOS300033” (2021).
# Residues, ends and D or L forms follow the SMILES beside them. *: point of attachment. Cbz = O=C(OCc1ccccc1)*
# Test system: SARS-CoV-2
# Design: species or system Chlorocebus sabaeus, Vero C1008
# Details: assay_design cell number determination; assay_format cell based format; assay_stage confirmatory assay; assaysupport stable transfection; bao_tags Fluorescence imaging cell growth inhibition assay; bioassay Fluorescence imaging cell growth inhibition assay; bioassay_setting in vitro; bioassay_type functional; detectioninstrument ArrayScan XTI HCS Reader; detectionmethod fluorescence microscopy
row,SMILES,IC50 relative [µM]
1,CC(C)(C)C(=O)/C(=C/c1cccc([N+](=O)[O-])c1)n1cncn1,4.9629
2,CC(C)(C)c1cc(C=C(C#N)C#N)cc(Br)c1O,7.2055
3,Cl.Cl.N[C@H]1CC[C@H](N[C@@H]2C[C@H]2c2ccccc2)CC1,65.2065
4,CN(Cc1cnc2nc(N)nc(N)c2n1)c1ccc(C(=O)N[C@@H](CCC(=O)O)C(=O)O)cc1 [METHOTREXATE],0.0551
5,CS(=O)(=O)O.Cc1c(C(=O)c2cccc3ccccc23)c2cccc3c2n1[C@H](CN1CCOCC1)CO3,11.9328
6,CCN(CC)c1ccc2cc(-c3nc4ccccc4[nH]3)c(=O)oc2c1,0.3531
7,Nc1nc(S)c2ncn(C3OC(CO)C(O)C3O)c2n1 (stereo not drawn),16.2319
8,CCc1c(-c2ccc3[nH]ncc3c2)cnc(N)c1-c1ccc(O)cc1,51.0608
9,CNC(=O)c1cc(Oc2ccc(NC(=O)Nc3ccc(Cl)c(C(F)(F)F)c3)c(F)c2)ccn1 [REGORAFENIB],16.4573
10,CCCCn1c(NC(=O)c2cccs2)c(C#N)c2nc3ccccc3nc21,13.3332
11,COc1cc(NCc2ccc3nc(N)nc(N)c3c2C)cc(OC)c1OC [TRIMETREXATE],0.3486
12,CC(C)C[C@@H](C=O)NC(=O)[C@H](CC(C)C)NC(=O)[C@H](CC(C)C)NC(=O)OCc1ccccc1 [MG-132] (Cbz-Leu-Leu-Leu-aldehyde),4.4656
13,CN(C)c1cccc(-c2c3c(=O)n(-c4ccccc4Cl)[nH]c3cc(=O)n2C)c1 [SETANAXIB],73.5962
14,O=C(C1CC1)N1CC[C@@H](Cc2n[nH]c(=O)n2-c2ccc(-c3ccc4occc4c3)cc2)C1,32.5565
15,COc1cc2ncnc(Nc3cccc(Br)c3)c2cc1OC,13.3328
16,CS(=O)(=O)O.Cc1c(O)cccc1C(=O)NC(CSc1ccccc1)C(O)CN1CC2CCCCC2CC1C(=O)NC(C)(C)C (stereo not drawn),15.1399
17,CC1=NN(c2ccc(C)c(C)c2)C(=O)/C1=N\Nc1cccc(-c2cccc(C(=O)O)c2)c1O [ELTROMBOPAG],56.9757
18,Nc1ncnc2c1ncn2[C@@H]1CC[C@@H](O)[C@H]1O,3.6981
19,C[C@@H]1COCCN1c1cc(=O)n2c(n1)N(Cc1cncc(Cl)c1)[C@H](C(F)(F)F)CC2,19.8832
20,O=C(Nc1ccc(Cl)cc1)Nc1ccc(Cl)c(Cl)c1 [TRICLOCARBAN],8.2868
21,COc1ccccc1[C@H](Cn1c(=O)n(C(C)(C)C(=O)O)c(=O)c2c(C)c(-c3ncco3)sc21)OC1CCOCC1 [FIRSOCOSTAT],0.1223
22,C#CCC(Cc1cnc2nc(N)nc(N)c2n1)c1ccc(C(=O)N[C@@H](CCC(=O)O)C(=O)O)cc1 (stereo partly drawn) [PRALATREXATE],0.0052
23,Cc1cnc(Nc2ccc(F)cc2Cl)nc1-c1c[nH]c(C(=O)N[C@H](CO)c2cccc(Cl)c2)c1,9.1133
24,Cl.O=C(c1c2ccccc2cc2ccccc12)N1CCC(N2CCC[C@@H](C(=O)N3CCOCC3)C2)CC1,4.1627

row,SMILES,IC50 relative [µM]
1,O=C(O)c1ccc(N2C(=O)/C(=C\c3ccc(-c4ccc([N+](=O)[O-])cc4)o3)C=C2c2ccccc2)cc1,651.6971
2,Nc1nc(N)c2nc(CNc3ccc(C(=O)N[C@@H](CCC(=O)O)C(=O)O)cc3)cnc2n1 [AMINOPTERIN],0.3554
3,CC[n+]1c(-c2ccccc2)c2cc(N)ccc2c2ccc(N)cc21.[Br-] [HOMIDIUM BROMIDE],96.2744
4,Nc1ncc(-c2ccnc(Nc3ccncc3)n2)c(CC2CC2)n1,12.577
5,O=C(Nc1ccc(Cl)c(Cl)c1)Nc1ccc(Cl)c(Cl)c1,5.12
6,CCCCOCCOc1ccc(-c2ccc3c(c2)/C=C(/C(=O)Nc2ccc([S@@+]([O-])Cc4cncn4CCC)cc2)CCCN3CC(C)C)cc1 [CENICRIVIROC],52.7809
7,CC(C)(C)c1cc(C=C(C#N)C#N)cc(C(C)(C)C)c1O [TYRPHOSTIN A9],0.8215
8,COc1ccc(-c2c[nH]c3nccc(-c4ccsc4)c23)c(OC)c1,28.2582
9,Cn1c(Nc2ccc(C(F)(F)F)cc2)nc2cc(Oc3ccnc(-c4ncc(C(F)(F)F)[nH]4)c3)ccc21 [RAF-265],10.7684
10,CC(C)(O)CNc1ncc(-c2ccnc(Nc3ccnc(Cl)c3)n2)c(CC2CC2)n1,793.9225
11,C/C(=C\c1ccc(C(=O)O)cc1)c1ccc2c(c1)C(C)(C)CCC2(C)C,54.1303
12,N#Cc1cccc(C#N)c1-c1nc2c3ccc(Cl)cc3c3ccccc3c2[nH]1,15.4145
13,CC(C)(C)c1ccccc1Oc1ncccc1NC(=O)Nc1ccc(OC(F)(F)F)cc1,9.5826
14,C[C@@H]1C[C@@H]([C@H](O)CC2CC(=O)NC(=O)C2)C(=O)[C@@H](C)C1 [CYCLOHEXIMIDE],2.4209
15,COc1ccc2c(c1)[C@]1(C[C@H]1c1ccc3c(/C=C/c4ccc(CN5C[C@@H](C)O[C@@H](C)C5)cc4)n[nH]c3c1)C(=O)N2 [OCIFISERTIB],14.7188
16,Cc1ccc(Oc2nc3cc(-c4ccc(-c5ccccc5)cc4)c(Cl)cc3[nH]2)cc1C(=O)O,351.9839
17,CNCc1ccc(-c2cc(-c3nc(-c4ccc(S(=O)(=O)C(C)C)cc4)cnc3N)on2)cc1 [BERZOSERTIB],33.669
18,COc1cc2c(NC3CCN(C4CCCCC4)CC3)nc(N3CCCN(C(C)C)CC3)nc2cc1OCCCN1CCCCC1,17.2224
19,COc1cc(/C=C2\SC(=O)NC2=O)ccc1Oc1ccc(C#N)cc1C(F)(F)F,49.4361
20,Cl.O=C(O)Cc1cccc(OCCCN(Cc2cccc(C(F)(F)F)c2Cl)CC(c2ccccc2)c2ccccc2)c1,16.3401
21,Nc1nc(O)c2[nH]nnc2n1 [8-AZAGUANINE],3.8962
22,CC(=O)[C@]1(O)Cc2c(O)c3c(c(O)c2[C@@H](O[C@H]2C[C@H](N)[C@H](O)[C@H](C)O2)C1)C(=O)c1ccccc1C3=O.Cl [IDARUBICIN HYDROCHLORIDE],28.5706
23,O=c1cc(N2CCOCC2)oc2c(-c3cccc4c3sc3ccccc34)cccc12,145.964
24,Oc1c(Cl)cc(Cl)cc1Sc1cc(Cl)cc(Cl)c1O [BITHIONOL],17.6664
